The test system of assay [1] is NF-kB transcriptional activity in HEK-293-NF-kB-Luc cell line overexpressing MALT1. The experiment in a line: NF-kB reporter assay (luciferase, MALT1 stably overexpressed). The assay is classed as cell-based. As to conditions: Homo sapiens, 24 h, HEK-293-NF-kB-Luc cells stably overexpressing MALT1, 24 h treatment, Bright Glo luminescence; read-out: NF-kB inhibition IC50. Summed up:
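Inhibition of NF-κB activity was expressed relative to 0.1% DMSO wells, from luminescence after 10 min Bright Glo at ambient temperature. Compounds had been applied for 24 h to adhered MALT1-overexpressing HEK-293 NF-κB luciferase reporter cells.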
(In general: Reporter assays use an easily measured gene product as a stand-in for the process of interest.)

The next assay deals with OCI-Ly-10 cells. The experiment in a line: Anticancer assay (14 days), cell viability by CCK-8. The class given is cell-based. Particulars: Homo sapiens, OCI-Ly10, 336 h, 14 days treatment, fresh treatment every 5th day, CCK-8 viability, read-out: Ly-10 (14d) inhibition IC50. As to the method: OCI-Ly-10 cells (UHN, Canada) seeded in culture media (IMDM+20% FBS) in 96-well plates were treated with various concentrations of the test compounds. Cells were treated for a period of 14 days (13-15 days depending on the confluency of cells) with fresh treatments every 5th day. After the first treatment, for all subsequent treatments, the cells were centrifuged, the spent media was removed and fresh media containing the test compound was added. Cell viability was assessed using CCK-8 kit (Dojindo Laboratories, China) as per manufacturer's instructions. Plates were read in colorimeter and absorbance was detected. (Detection at 450 nm; Background correction at 650 nm). % inhibition was calculated relative to the samples containing media with 0.1% DMSO alone as per the following formula

Consider 18 molecules from US20190275012A9, “SUBSTITUTED THIAZOLO-PYRIDINE COMPOUNDS AS MALT1 INHIBITORS” (Lupin Limited, priority 2016, published 2019).

One may read the IC50 as the point on the concentration scale where inhibition reaches its midpoint.

On to `COC(c1c(NC(=O)Nc2cnc(-n3nccn3)c(Cl)c2)cnc2sc(C)nc12)C1CCC1` (stereo not drawn) [Compound 225b, 1-(5-Chloro-6-(2H-1,2,3-triazol-2-yl)pyridin-3-yl)-3-(7-(cyclobutyl(methoxy)methyl)-2-methylthiazolo[5,4-b]pyridin-6-yl)urea], for which the IC50 in assay [1] is 1 to 100 nM; with OCI-Ly-10 cells, 26 to 100 nM.
Turning to `COc1ncc(NC(=O)Nc2cnc3sc(C)nc3c2N(C)CC(C)OC)cc1Cl` (stereo not drawn) [Compound 55a, 1-(5-Chloro-6-methoxypyridin-3-yl)-3-(7-((2-methoxypropyl)(methyl)amino)-2-methylthiazolo[5,4-b]pyridin-6-yl)urea], the results for the IC50 (in assay [1]; in the assay with OCI-Ly-10 cells) were 501 to 1500 nM and 101 to 250 nM, respectively.
Turning to `COCCN(C)c1c(NC(=O)Nc2cnc(-n3nccn3)c(Cl)c2)cnc2sc(C)nc12` [Compound 44, 1-(5-Chloro-6-(2H-1,2,3-triazol-2-yl)pyridin-3-yl)-3-(7-((2-methoxyethyl)(methyl)amino)-2-methylthiazolo[5,4-b]pyridin-6-yl)urea], the IC50 in assay [1] was 101 to 500 nM; with OCI-Ly-10 cells, 101 to 250 nM.
As to `Cc1nc2c(C3CCCO3)c(NC(=O)Nc3cnc(-n4nccn4)c(Cl)c3)cnc2s1` (single isomer, unassigned) [Compound 136b, 1-(5-Chloro-6-(2H-1,2,3-triazol-2-yl)pyridin-3-yl)-3-(2-methyl-7-(tetrahydrofuran-2-yl)thiazolo[5,4-b]pyridin-6-yl)urea], the IC50 in assay [1] is 1 to 100 nM; in the assay on OCI-Ly-10 cells, 101 to 250 nM.
As for `COC(c1ccc(F)cc1)c1c(NC(=O)Nc2cnc(-n3nccn3)c(C(F)(F)F)c2)cnc2sc(C)nc12` (stereo not drawn) [Compound 85b, 1-(6-(2H-1,2,3-Triazol-2-yl)-5-(trifluoromethyl)pyridin-3-yl)-3-(7-((4-fluorophenyl)(methoxy)methyl)-2-methylthiazolo[5,4-b]pyridin-6-yl)urea], the concentration for half-maximal inhibition (IC50) in assay [1] is 1 to 100 nM; in the assay on OCI-Ly-10 cells, 251 to 500 nM.
With `COCC(OC)c1c(NC(=O)Nc2cnc(OC)c(Cl)c2)cnc2sc(C)nc12` (stereo not drawn) [Compound 34a, 1-(5-chloro-6-methoxypyridin-3-yl)-3-(7-(1,2-dimethoxyethyl)-2-methylthiazolo[5,4-b]pyridin-6-yl)urea], the results for the IC50 (in assay [1]; in the assay on OCI-Ly-10 cells) were 101 to 500 nM and 101 to 250 nM, respectively.
For the molecule `COC(C)c1c(NC(=O)Nc2cnc(-n3ccnn3)c(C(F)F)c2)cnc2sc(C)nc12` (single isomer, unassigned) [Compound 206b, (S) or (R)-1-(5-(Difluoromethyl)-6-(1H-1,2,3-triazol-1-yl)pyridin-3-yl)-3-(7-(1-methoxyethyl)-2-methylthiazolo[5,4-b]pyridin-6-yl)urea], the IC50 was in the range of 1 to 100 nM in assay [1] and 101 to 250 nM with OCI-Ly-10 cells.
For `Cc1nc2c(N(C)CC3CC3)c(NC(=O)Nc3cnc(-n4nccn4)c(Cl)c3)cnc2s1` [Compound 42, 1-(5-Chloro-6-(2H-1,2,3-triazol-2-yl)pyridin-3-yl)-3-(7-((cyclopropylmethyl)(methyl)amino)-2-methylthiazolo[5,4-b]pyridin-6-yl)urea] the same measures were 1 to 100 nM and 26 to 100 nM.
In the case of `COCCN(c1c(NC(=O)Nc2cnc(-n3nccn3)c(C(F)(F)F)c2)cnc2sc(C)nc12)C1CC1` [Compound 69, 1-(6-(2H-1,2,3-Triazol-2-yl)-5-(trifluoromethyl)pyridin-3-yl)-3-(7-(cyclopropyl (2-methoxyethyl)amino)-2-methylthiazolo[5,4-b]pyridin-6-yl)urea], the values for the concentration for half-maximal inhibition (IC50) (in assay [1]; in the assay with OCI-Ly-10 cells) were 1 to 100 nM and 101 to 250 nM, respectively.
Regarding `CCOC(C)c1c(NC(=O)Nc2cnc(-n3nccn3)c(Cl)c2)cnc2sc(C)nc12` (racemic) [Compound 164, 1-(5-Chloro-6-(2H-1,2,3-triazol-2-yl)pyridin-3-yl)-3-(7-(1-ethoxyethyl)-2-methylthiazolo[5,4-b]pyridin-6-yl)urea], the values for the IC50 (in assay [1]; with OCI-Ly-10 cells) were 1 to 100 nM and 101 to 250 nM, respectively.
`COC(c1c(NC(=O)Nc2cnc(-n3nccn3)c(C(F)(F)F)c2)cnc2sc(C)nc12)C1CCC1` (stereo not drawn) [Compound 224b, 1-(6-(2H-1,2,3-Triazol-2-yl)-5-(trifluoromethyl)pyridin-3-yl)-3-(7-(cyclobutyl(methoxy)methyl)-2-methylthiazolo[5,4-b]pyridin-6-yl)urea]: the half-maximal inhibitory concentration (IC50) in assay [1] fell in the range of 1 to 100 nM; in the assay with OCI-Ly-10 cells it was 0.1 to 25 nM.
For the molecule `O=C(Nc1cnc(-n2nccn2)c(Cl)c1)Nc1cnc2scnc2c1C1CC1` [Compound 35, 1-(5-Chloro-6-(2H-1,2,3-triazol-2-yl)pyridin-3-yl)-3-(7-cyclopropylthiazolo[5,4-b]pyridin-6-yl)urea], the results for the concentration for half-maximal inhibition (IC50) (in assay [1]; in the assay on OCI-Ly-10 cells) were 1 to 100 nM and 26 to 100 nM, respectively.
In the same order, the values of `CCOc1nc(-n2nccn2)c(C(F)(F)F)cc1NC(=O)Nc1cnc2sc(C)nc2c1C(C)OC` (single isomer, unassigned) [Compound 221, (S) or (R)-1-(2-ethoxy-6-(2H-1,2,3-triazol-2-yl)-5-(trifluoromethyl)pyridin-3-yl)-3-(7-(1-methoxyethyl)-2-methylthiazolo[5,4-b]pyridin-6-yl)urea] are 1 to 100 nM and 26 to 100 nM.
With `COC(C)c1c(NC(=O)Nc2ccc(-c3nnco3)c(Cl)c2)cnc2sc(C)nc12` (single isomer, unassigned) [Compound 203b, (S) or (R)-1-(3-Chloro-4-(1,3,4-oxadiazol-2-yl)phenyl)-3-(7-(1-methoxyethyl)-2-methylthiazolo[5,4-b]pyridin-6-yl)urea], the IC50 lay in the range of 1 to 100 nM in assay [1] and 26 to 100 nM with OCI-Ly-10 cells.
In the same order, the values of `COC(c1c(NC(=O)Nc2cnc(-n3nccn3)c(Cl)c2)cnc2sc(C)nc12)C(C)C` (stereo not drawn) [Compound 79a, 1-(5-Chloro-6-(2H-1,2,3-triazol-2-yl)pyridin-3-yl)-3-(7-(1-methoxy-2-methylpropyl)-2-methylthiazolo[5,4-b]pyridin-6-yl)urea] are 101 to 500 nM and 101 to 250 nM.
As to `COc1nc(-n2nccn2)c(C(F)(F)F)cc1NC(=O)Nc1cnc2sc(C)nc2c1C(OC)C(C)C` (stereo not drawn) [Compound 80a, 1-(7-(1-Methoxy-2-methylpropyl)-2-methylthiazolo[5,4-b]pyridin-6-yl)-3-(2-methoxy-6-(2H-1,2,3-triazol-2-yl)-5-(trifluoromethyl)pyridin-3-yl)urea], the IC50 in assay [1] lay within 1 to 100 nM; in the assay on OCI-Ly-10 cells it was 26 to 100 nM.
For `COC(C)c1c(NC(=O)Nc2cnc(-n3nccn3)c(C(F)F)c2)cnc2sc(C)nc12` (single isomer, unassigned) [Compound 205b, (S) or (R)-1-(5-(Difluoromethyl)-6-(2H-1,2,3-triazol-2-yl)pyridin-3-yl)-3-(7-(1-methoxyethyl)-2-methylthiazolo[5,4-b]pyridin-6-yl)urea], the half-inhibitory concentration (IC50) lay in the range of 101 to 500 nM in assay [1] and 101 to 250 nM in the assay on OCI-Ly-10 cells.
For `CCOc1nc(-n2nccn2)c(C(F)(F)F)cc1NC(=O)Nc1cnc2sc(C)nc2c1C(OC)C1CC1` (stereo not drawn) [Compound 226a, 1-(7-(Cyclopropyl(methoxy)methyl)-2-methylthiazolo[5,4-b]pyridin-6-yl)-3-(2-ethoxy-6-(2H-1,2,3-triazol-2-yl)-5-(trifluoromethyl)pyridin-3-yl)urea], the concentration for half-maximal inhibition (IC50) was 1 to 100 nM in assay [1] and 26 to 100 nM in the assay on OCI-Ly-10 cells.
